According to patent publication US20230121031A1, “MASKED FLUOROGENIC COMPOUNDS AND METHODS OF USING THE SAME” (Rutgers, The State University of New Jersey, priority 2021, published 2023):

Assays:
RNABabySpinach (51-nt) = assay: Experimental binding assay (fluorescence) with RNABabySpinach; details: Fluorophore (2 μM), RNA (1 μM); for fluorescence intensity with RNABabySpinach: HEPES (pH 8, 20 mM), KCl (100 mM), MgCl2 (10 mM)
Excerpt: FIGS. 4A-4E depict the effect of chemical modifications of HBI on its binding interactions with RNA. FIG. 4A is a crystal structure of DFHBI-RNASpinach (PDB: 4TS2) focusing on the key H-bonding interactions of DFHBI within the G-G-A binding pocket of RNASpinach. […] FIG. 4C is a Pymol view of docked Oct-HBI-RNASpinach, showing that these interactions are disrupted. FIG. 4D is a Pymol view of a docked methyl carbonate-modified HBI-RNASpinach, showing that these interactions are disrupted. FIG. 4E depicts normalized RFUs of HBI and HBI+RNABabySpinach (gray bars) vs. Oct-HBI and Oct-HBI+RNABabySpinach (blue bars). Fluorophore (2 μM), RNA (1 μM), HEPES (pH 8, 20 mM), KCl (100 mM), and MgCl2 (10 mM).
Ligand docking is a useful tool to screen virtual library of molecules to predict binding affinity and conformation of a ligand within a binding pocket. To gain a theoretical insight into the effect of chemical modifications of HBI on its binding interactions with RNA, a robust docking method named Auto-Dock Vina was used (FIGS. 4A-4D). First, the validity of this method was tested by comparing the proposed HBI-RNASpinach docking (FIG. 4B) with the X-ray crystal structure of the native ligand-RNASpinach [FIG. 4A; the co-crystallized ligand in the reported study is 3,5-difluoro-HBI (DFHBI)]. To attain the initial HBI structure for docking, optimizations were performed in gas phase via density functional theory calculations using B3LYP, 6-31G basis set in Gaussian16 software. […] Next, the phenolic oxygen of HBI was replaced with alkyl carbonate groups.

RNABabySpinach = assay: Fluorescence of H2O2-treated aptamer solutions; type: biochemical; details: for rise of fluorescence intensity of ligand+RNABabySpinach+H2O2: H2O2 100 μM
Description: FIGS. 7A-7C depict H2O2 treatment of the aptamer systems. HBI and PBE-HBI (50 μM), RNA (1 μM RNABabySpinach), HEPES (pH 8, 50 mM), KCl (100 mM), MgCl2 (10 mM), H2O2 (100 μM). FIG. 7A depict the time-dependent change in fluorescence intensity upon H2O2 addition. FIG. 7B depicts normalized RFUs at 0, 5, and 60 min. FIG. 7C depicts RNABabySpinach stability against H2O2. TBE-urea PAGE lanes: 1. Native RNA; 2. [HBI+RNA]; 3. [HBI+RNA+H2O2]; 4. [PBE-HBI+RNA]; 5. [PBE-HBI+RNA+H2O2]. For imaging, the gel was stained with SYBR gold.
Next, the change in fluorescence for H2O2-treated aptamer solutions that contain HBI (positive control) and PBE-HBI (FIGS. 7A and 7B) was monitored. The RFU of PBE-HBI+RNABabySpinach was lower than that of HBI+RNABabySpinach by 14-fold at 0 min (no H2O2 present), validating that masking the phenolic oxygen of HBI inhibits RNA binding. Upon addition of H2O2 (100 μM), RFU of PBE-HBI+RNABabySpinach reached up to 92% of RFU of the control in 60 min. […] Upon H2O2 addition, the solution pH increased from 8.0 to 8.4 while ˜10% growth in fluorescence intensity was measured for the HBI-containing samples. This change is attributed to the pH-dependent increase in the phenolate form of HBI (see FIG. 5), which is known to have a higher extinction coefficient than its phenol form. […] To investigate the backbone stability of RNABabySpinach under these oxidative conditions, PAGE analyses of RNABabySpinach solutions containing HBI (FIG. 7C, lanes 2 and 3) and PBE-HBI (FIG. 7C, lanes 4 and 5) were carried out.
Remarkably, the kinetics of H2O2 detection, which involves conversion of PBE-HBI to HBI, followed by HBI-aptamer binding, is fast. The incubation time to achieve 1/2 RFUmax through this process is 6.8 (±0.5) min. Reliable detection of H2O2 is feasible in ˜1 min as the fluorescence intensity doubles. These findings are encouraging and serve as a standard for comparing the detection kinetics for other probes. […] In certain embodiments, reliable detection of elevated ALP may require longer incubations with the respective ABA system (FIG. 3G), as ALP has a relatively small margin of variation. The rates of biomarker detection can be modulated by substituting the HBI carbon framework of the probes (FIGS. 3A-3G) with electron donating (—OMe, —NMe2) or withdrawing (—F, —CF3) groups.

[1] = free (unbound) ligand; cited from earlier work
[2] = not told; cited from earlier work
BL21-DE3 cells = assay: Fluorescence imaging of H2S in E. coli expressing aptamer; type: cell-based; details: upon introduction of H2S (1 mM)
Excerpt: FIGS. 9A-9D depict detection of H2S in E. coli utilizing AEC-MFHBI. FIG. 9A provides a schematic showing the detection of H2S in E. coli by fluorescence of MFHBI upon cleavage from AEC-MFHBI. FIGS. 9B-9D provide fluorescence images of E. coli expressing aptamer plasmid which have been administered MFHBI (FIG. 9B), AEC-MFHBI (FIG. 9C), and AEC-MFHBI in the presence of H2S (FIG. 9D). Dual channel: MFHBI+RNA (470/550 nm) and FM 4-64FX (510/640 nm). Scale bar: 10 μm.
Imaging of hydrogen sulfide (H2S) has been performed in an analogous manner to that which is described for the detection of H2O2. Specifically, BL21-DE3 cells are transformed with plasmid DNA that contains a T7 promoter and RNABabySpinach or a custom triple baby spinach construct, which allows for the expression of three baby spinach RNA aptamers per transcription cycle. These cells are inoculated with isopropyl β-D-1-thiogalactopyranoside (IPTG) to induce RNA transcription. Subsequent immobilization of the cells on glass dish coated with poly-L-lysine (PLL) and incubation with an imaging buffer (IB) containing the imaging agents and/or controls (i.e., MFHBI, FIG. 9B; or AEC-MFHBI, FIGS. 9C-9D), allowed real time fluorescence imaging of SH2 in cellulo.

[3] = system: E. coli competent cells (e.g., BL21-DE3); assay: Fluorescence imaging of H2O2 in E. coli expressing aptamer; type: cell-based; details: for fluorescence in E. coli expressing aptamer: imaging buffer with H2O2 (100 μM)
Excerpt: FIGS. 8A-8D depict detection of H2O2 in E. coli utilizing PBAB-MFHBI. FIG. 8A provides a schematic showing the detection of H2O2 in E. coli by fluorescence of MFHBI upon cleavage from PBAB-MFHBI. FIGS. 8B-8D provide fluorescence images of E. coli expressing aptamer plasmid which have been administered MFHBI (FIG. 8B), PBA-MFHBI (FIG. 8C), and PBA-MFHBI in the presence of H2O2 (FIG. 8D). Dual channel: MFHBI+RNA (470/550 nm) and FM 4-64FX (510/640 nm). Scale bar: 10 μm.
For histochemical detection of oxidative stress in living cells, the focus is first on E. coli competent cells (e.g., BL21-DE3) (FIGS. 8A-8D). For the imaging of H2O2, BL21-DE3 cells are transformed with plasmid DNA that contains a T7 promoter and RNABabySpinach or a custom triple baby spinach construct, which allows for the expression of three baby spinach RNA aptamers per transcription cycle. These cells are inoculated with isopropyl β-D-1-thiogalactopyranoside (IPTG) to induce RNA transcription. […] The results can guide additional studies with more complex and biologically relevant cell lines, in particular, any primary or established mammalian cells (e.g., HEK293, HeLa, and HUVEC, inter alia). Detection of endogenous H2O2 generation can also be studied by using molecular stimulants known to trigger mitochondrial ROS production, such as Phorbol 12-myristate 13-acetate (PMA).

4-hydroxy-benzylidene imidazolinone [HBI, reference compound]
fluorescence intensity with RNABabySpinach (RNABabySpinach (51-nt)): 846 RFU
growth in fluorescence intensity upon H2O2 addition (RNABabySpinach; H2O2 addition, solution pH increased from 8.0 to 8.4): ~10%
fluorescence quantum yield Φf [1]: ~0.0001
cell permeability [2]: cell permeable

CC1=N/C(=C\c2ccc(OC(=O)OCCN=[N+]=[N-])c(F)c2)C(=O)N1C [AEC-MFHBI]
fluorescence in E. coli expressing aptamer (BL21-DE3 cells): rapid increase in fluorescence is observed within one hour

CC1=N/C(=C\c2ccc(OCc3ccc(B(O)O)cc3)c(F)c2)C(=O)N1C [PBAB-MFHBI]
fluorescence in E. coli expressing aptamer, control sample ([3]; exogenous H2O2 absent (FIG. 8C)): very small increase in fluorescence
fluorescence in E. coli expressing aptamer [3]: rapid increase in fluorescence within one hour

CC1=N/C(=C\c2ccc(OCc3ccc(B4OC(C)(C)C(C)(C)O4)cc3)cc2)C(=O)N1C [PBE-HBI]
RFU lower than that of HBI+RNABabySpinach (RNABabySpinach; 0 min (no H2O2 present), 50 μM ligand, 1 μM RNA, HEPES pH 8): 14 fold
RFU as % of RFU of the control (HBI+RNABabySpinach) (RNABabySpinach; H2O2 (100 μM), in 60 min): up to 92%
time for reliable detection of H2O2 (fluorescence intensity doubles) (RNABabySpinach; H2O2 detection): ~1 min
incubation time to achieve 1/2 RFUmax (RNABabySpinach; H2O2 detection: conversion to HBI followed by HBI-aptamer binding): 6.8 (±0.5) min
rise of fluorescence intensity of ligand+RNABabySpinach+H2O2 (RNABabySpinach; after 60 min): ~8 fold
rise of fluorescence intensity of ligand+RNABabySpinach+H2O2 (RNABabySpinach; at 5 min): ~4 fold
fluorescence in E. coli expressing aptamer [3]: rapid increase in fluorescence within one hour

CCCCCCCCOC(=O)Oc1ccc(/C=C2\N=C(C)N(C)C2=O)cc1 [Oct-HBI]
fluorescence intensity with RNABabySpinach (RNABabySpinach (51-nt)): 21 RFU
decrease in fluorescence intensity compared to HBI-RNABabySpinach (RNABabySpinach (51-nt); HEPES pH 8): ~40 times
